Experimental data as given in patent US7662767B2, “Polynucleotide intercalator interceptors and inhibitors” (Materials Evolution and Development USA, Inc., priority 2000, dated 2010).

Assay: AO-CAF complex, spectrofluorometry λex 485 nm / λem 530 nm
Assay type: binding
Details: AO [2 μM], CAF [1-20 μM]
Procedure: Spectrofluorometric analysis was performed at an AO concentration of 2 μM to determine the effect of CAF and a physiological concentration of NaCl on the fluorescence spectra of AO. CAF was added over a series of CAF:AO molecular ratios ranging from 2500:1 to 0.5:1 and the fluorescence intensity determined at λem 530 nm and 635 nm. The fluorescence intensity was again determined following the addition of NaCl to a final concentration 150 mM and pH 7.0 to each test well containing both AO and CAF.
The data in FIG. 3-5A depicts the mean fluorescence values at λem 530 nm of 2 μM AO with CAF in the absence of, and in the presence of, 150 mM NaCl over a range of CAF to AO molecular ratios from 0.5 to 10.0 (1 μM to 20 μM CAF). The example shown in FIG. 3-5A is a plot of fluorescence intensity of AO excited at λex 485 nm and monitored at λem 530 nm versus CAF concentration to show the effect of CAF and NaCl on the fluorescence of AO and the formation of the AO-CAF complex. Solutions of 2 μM AO were analyzed using spectrofluorometric techniques in the presence of various concentrations of CAF with and without addition of NaCl [150 mM]. […] However at the CAF concentration of 5 mM (molecular ratio 2,500:1) there was a significant change in the mean fluorescence intensity with the value going from 1,245±53 for CAF and AO alone to 1,150±34 with the addition of 150 mM NaCl. […]

Cn1c(=O)c2c(ncn2C)n(C)c1=O [1,3,7-trimethyl xanthine (caffeine), 1,3,7-trimethyl xanthine]
K ± S.D. (Fluorescence plus NaCl 150 mM): 216 ± 20 M⁻¹ | K ± S.D. (Fluorescence, absence of NaCl): 254 ± 27 M⁻¹
